Results published in patent publication US12146879B2, “Capacitive biosensor for identifying a microorganism or determining antibiotic susceptibility” (priority 2016, dated 2024).
In brackets after ≈: the same amount, converted by molar mass.

Experiments:
E. coli [1] = assay: Susceptibility measurement by type of antibiotic with capacitive biosensor (E. coli-specific aptamer); type: cell-based; conditions: antibiotic 100 ng/ml, 37° C., 6 hours, FIG. 8
Protocol: The susceptibility inspection for antibiotics was performed, after identifying an E. coli using the capacitive biosensor manufactured by treating E. coli-specific aptamer in Experimental Example 2 on the substrate manufactured according to Manufacturing Example 2.
PBS was treated as a control, each treatment was treated with cephalothin, Gentamicin, Ciprofloxacin and chloramphenicol at a concentration of 100 ng/ml, the change in capacitance with time was measured for 6 hours in an incubator at 37° C.

E. coli [2] = assay: Minimum inhibitory concentration by real-time capacitance of capacitive biosensor; type: cell-based; conditions: E. coli 10^5 cells/ml grown 2 hours at 37° C.
Protocol: To determine the minimum inhibitory concentration of an antibiotic, E. coli (10^5 cells/ml) was treated with a capacitive biosensor and grown at 37° C. for 2 hours, and then treated with antibiotic ceftriaxone (MIC: ˜ 30 ng/ml) at concentrations of 100, 80, 60, 40 and 20 ng/ml, respectively. The degree of susceptibility was determined based on the results of the capacitance monitored in real time, and the minimum inhibitory concentration thereof was confirmed.
In addition, E. coli (10^5 cells/ml) was treated with a capacitive biosensor and grown at 37° C. for 2 hours, and then treated with antibiotic Gentamicin (MIC: ˜ […]) 50, 5, 0.5, 0.05, and 0.005 μg/ml, respectively. The degree of susceptibility was determined based on the results of the capacitance monitored in real time, and the minimum inhibitory concentration thereof was confirmed.

E. coli [3] = conditions: reference value given in the method; cited from earlier work
Staphylococcus aureus [4] = assay: Minimum inhibitory concentration by real-time capacitance of capacitive biosensor; type: cell-based; conditions: Staphylococcus aureus 10^5 cells/ml grown 2 hours at 37° C.; 50, 5, 0.5, 0.05, 0.005 μg/ml; text prints 'this E. coli'
Protocol: In addition, Staphylococcus aureus (10^5 cells/ml) was treated with a capacitive biosensor and grown at 37° C. for 2 hours, and then was treated with antibiotic Gentamicin (MIC: ˜ […]) 50, 5, 0.5, 0.05, and 0.005 μg/ml, respectively. The degree of susceptibility was determined based on the results of the capacitance monitored in real time, and the minimum inhibitory concentration thereof was confirmed.

[5] = system: Ampicillin-resistant E. coli; assay: Susceptibility of antibiotic-resistant bacterium by real-time capacitance; type: cell-based; conditions: Tetracycline 2 μg/ml, Gentamicin 1 μg/ml, Ampicillin 8 μg/ml; FIG. 11 (b)
Protocol: (§1) In addition, Tetracycline-resistant E. coli or Ampicillin-resistant E. coli (10^5 cells/ml) was treated with a capacitive biosensor and grown at 37° C. for 2 hours, and was then treated with Tetracycline at a concentration of 2 μg/ml, Gentamicin at a concentration of 1 μg/ml, and Ampicillin at a concentration of 8 μg/ml, respectively. The degree of susceptibility was determined based on the results of the capacitance monitored in real time.

[6] = system: Tetracycline-resistant E. coli; assay: as above; type: cell-based; conditions: Tetracycline 2 μg/ml, Gentamicin 1 μg/ml, Ampicillin 8 μg/ml; FIG. 11 (a)
Protocol: as §1

Staphylococcus aureus [7] = conditions: reference value given in the method; cited from earlier work
E. coli [8] = assay: Identification of a microorganism: capacitance change of aptamer-fixed biosensor; type: binding; conditions: about 2 hours, 37° C., FIG. 6
Protocol: (§2) An experiment was conducted to confirm whether a microorganism could be identified using the biosensor produced according to Production Example 2.
(§3) Particularly, each well was treated and fixed with an aptamer specific to E. coli, Acinetobacterbaumannii, Staphylococcus aureus or Enterococcus faecalis, and media (a control group or a control) not containing a microorganism, E. coli, Acinetobacterbaumannii, Staphylococcus aureus or Enterococcus faecalis were treated with a sensor, and then the change in capacitance was measured after about 2 hours in an incubator at 37° C.

other microorganisms = assay: as above; type: binding; conditions: about 2 hours, 37° C., FIG. 6
Protocol: as §2, §3

Staphylococcus aureus [9] = assay: as above; type: binding; conditions: about 2 hours, 37° C., FIG. 6
Protocol: as §2, §3

Molecule: O=C(O)c1cn(C2CC2)c2cc(N3CCNCC3)c(F)cc2c1=O [Ciprofloxacin]
- change in capacitance after the addition of antibiotics (E. coli [1]): decrease in capacitance
- susceptibility or resistance of the bacterium to the antibiotic (E. coli [1]): susceptibility
- susceptibility or resistance of the bacterium to the antibiotic (E. coli [1]; listed as ciprofloxacin): high

Molecule: CO/N=C(\C(=O)N[C@@H]1C(=O)N2C(C(=O)O)=C(CSc3nc(=O)c(=O)[nH]n3C)CS[C@H]12)c1csc(N)n1 [ceftriaxone]
- MIC (E. coli [2]; Escherichia coli, 100, 80, 60, 40 and 20 ng/ml, FIG. 9): 0.04 µg/mL (≈ 0.0721 µM)
- MIC (stated with the antibiotic) (E. coli [3]): ~0.03 µg/mL

Molecule: CC(=O)OCC1=C(C(=O)O)N2C(=O)[C@@H](NC(=O)Cc3cccs3)[C@H]2SC1 [cephalothin]
- change in capacitance after the addition of antibiotics (E. coli [1]): increase in capacitance
- susceptibility or resistance of the bacterium to the antibiotic (E. coli [1]): resistance (tolerance)

Molecule: O=C(N[C@H](CO)[C@H](O)c1ccc([N+](=O)[O-])cc1)C(Cl)Cl [chloramphenicol]
- change in capacitance after the addition of antibiotics (E. coli [1]): increase in capacitance
- susceptibility or resistance of the bacterium to the antibiotic (E. coli [1]): resistance (tolerance)

Molecule: Gentamicin
- change in capacitance after the addition of antibiotics (E. coli [1]): decrease in capacitance
- susceptibility or resistance of the bacterium to the antibiotic (E. coli [1]): susceptibility
- minimum inhibitory concentration (E. coli [2]; 50, 5, 0.5, 0.05, 0.005 μg/ml, FIG. 10): 0.5 µg/mL
- minimum inhibitory concentration (Staphylococcus aureus [4]): 0.5 µg/mL
- change in capacitance value after antibiotic treatment [5]: decrease in capacitance value
- change in capacitance value after antibiotic treatment [6]: decrease in capacitance value
- MIC (stated with the antibiotic) (E. coli [3]): 0.5 µg/mL
- MIC (stated with the antibiotic) (Staphylococcus aureus [7]): 0.5 µg/mL

B1: E. coli-specific aptamer: E. coli-specific aptamer, SEQ ID NO: 1, Genotech, Daejeon, Korea (nucleic acid)
chain: GCAATGGTACGGTACTTCCCCATGAGTGTTGTGAAATGTTGGGACACTAGGTGGCATAGAGCCGCAAAAGTGCACGCTACTTTGCTAA
modifications: DNA, backbone and methylation of C not given here; deposited on substrate, further chemistry not fully specified
- change in capacitance on treatment with E. coli (E. coli [8]): significantly increased
- change in capacitance on treatment with other microorganisms (other microorganisms): did not occur significantly

B2: Staphylococcus aureus-specific aptamer: Staphylococcal aptamer, SEQ ID NO: 3, Genotech, Daejeon, Korea (nucleic acid)
chain: GCAATGGTACGGTACTTCCTCGGCACGTTCTCAGTAGCGCTCGCTGGTCATCCCACAGCTACGTCAAAAGTGCACGCTACTTTGCTAA
modifications: DNA, backbone and methylation of C not given here; deposited on substrate, further chemistry not fully specified
- change in capacitance on treatment with Staphylococcus aureus (Staphylococcus aureus [9]): large capacitance change
- change in capacitance on treatment with other microorganisms (other microorganisms): did not occur significantly
